In the NIST ThermoML archive (doi:10.1021/je500380x):

Test: mn = molality of the nth substance listed, in mol/kg
Details: 100 kPa, Liquid; for electrical conductivity: Alternating current cell with electrodes; for viscosity: Falling or rolling sphere viscometry; for mass density: Vibrating tube method

CCC(=O)OCCN1CCNCC1 [2-(piperazin-1-yl)ethyl propionate] + CCO
Details | electrical conductivity [S/m] | mass density [kg/m3] | viscosity [mPa·s]
293.15 K, m1 = 0.05 | 0.018 | 792.31 | 1.231
293.15 K, m1 = 0.1 | 0.0284 | 795.01 | 1.291
293.15 K, m1 = 0.1985 | 0.0443 | 800.36 | 1.369
293.15 K, m1 = 0.3005 | 0.0571 | 806.02 | 1.473
293.15 K, m1 = 0.4001 | 0.0671 | 811.4 | 1.577
293.15 K, m1 = 0.5007 | 0.0769 | 817.08 | 1.711
293.15 K, m1 = 0.5998 | 0.0851 | 822.5 | 1.845
293.15 K, m1 = 0.7002 | 0.092 | 828.2 | 2
293.15 K, m1 = 0.8 | 0.0988 | 833.89 | 2.198
293.15 K, m1 = 0.8957 | 0.1048 | 839.61 | 2.363
293.15 K, m1 = 1 | 0.1105 | 845.48 | 2.582
293.15 K, m1 = 1.198 | 0.119 | 857.06 | 3.081
293.15 K, m1 = 1.401 | 0.126 | 869.49 | 3.774
293.15 K, m1 = 1.602 | 0.13 | 881.43 | 4.697
293.15 K, m1 = 1.8 | 0.1314 | 893.69 | 5.93
293.15 K, m1 = 2.001 | 0.1308 | 906.93 | 7.934
293.15 K, m1 = 2.198 | 0.127 | 918.83 | 9.733
293.15 K, m1 = 2.397 | 0.121 | 931.94 | 12.86
293.15 K, m1 = 2.597 | 0.1137 | 945.08 | 18.8
293.15 K, m1 = 2.796 | 0.106 | 958.17 | 25.23
293.15 K, m1 = 3.006 | 0.0951 | 972.39 | 37.45
298.15 K, m1 = 0.05 | 0.0186 | 788.01 | 1.12
298.15 K, m1 = 0.1 | 0.0296 | 790.73 | 1.173
298.15 K, m1 = 0.1985 | 0.0465 | 796.08 | 1.241
298.15 K, m1 = 0.3005 | 0.06 | 801.71 | 1.333
298.15 K, m1 = 0.4001 | 0.071 | 807.14 | 1.424
298.15 K, m1 = 0.5007 | 0.0816 | 812.78 | 1.541
298.15 K, m1 = 0.5998 | 0.0904 | 818.26 | 1.658
298.15 K, m1 = 0.7002 | 0.0977 | 823.96 | 1.793
298.15 K, m1 = 0.8 | 0.106 | 829.67 | 1.967
298.15 K, m1 = 0.8957 | 0.1123 | 835.39 | 2.11
298.15 K, m1 = 1 | 0.119 | 841.3 | 2.298
298.15 K, m1 = 1.198 | 0.129 | 852.92 | 2.729
298.15 K, m1 = 1.401 | 0.137 | 865.42 | 3.319
298.15 K, m1 = 1.602 | 0.1415 | 877.35 | 4.106
298.15 K, m1 = 1.8 | 0.1443 | 889.66 | 5.146
298.15 K, m1 = 2.001 | 0.1447 | 902.95 | 6.811
298.15 K, m1 = 2.198 | 0.1423 | 914.88 | 8.295
298.15 K, m1 = 2.397 | 0.138 | 928.01 | 10.83
298.15 K, m1 = 2.597 | 0.1304 | 941.19 | 15.64
298.15 K, m1 = 2.796 | 0.1237 | 954.36 | 20.7
298.15 K, m1 = 3.006 | 0.1136 | 968.58 | 30.28
303.15 K, m1 = 0.05 | 0.0191 | 783.69 | 1.021
303.15 K, m1 = 0.1 | 0.0305 | 786.41 | 1.069
303.15 K, m1 = 0.1985 | 0.0483 | 791.76 | 1.2
303.15 K, m1 = 0.3005 | 0.0627 | 797.4 | 1.209
303.15 K, m1 = 0.4001 | 0.0745 | 802.85 | 1.289
303.15 K, m1 = 0.5007 | 0.0858 | 808.5 | 1.392
303.15 K, m1 = 0.5998 | 0.0954 | 813.99 | 1.495
303.15 K, m1 = 0.7002 | 0.1036 | 819.7 | 1.613
303.15 K, m1 = 0.8 | 0.1125 | 825.43 | 1.766
303.15 K, m1 = 0.8957 | 0.119 | 831.17 | 1.89
303.15 K, m1 = 1 | 0.127 | 837.09 | 2.054
303.15 K, m1 = 1.198 | 0.139 | 848.73 | 2.427
303.15 K, m1 = 1.401 | 0.149 | 861.28 | 2.935
303.15 K, m1 = 1.602 | 0.155 | 873.24 | 3.606
303.15 K, m1 = 1.8 | 0.16 | 885.6 | 4.489
303.15 K, m1 = 2.001 | 0.1614 | 898.93 | 5.886
303.15 K, m1 = 2.198 | 0.159 | 910.89 | 7.117
303.15 K, m1 = 2.397 | 0.155 | 924.07 | 9.203
303.15 K, m1 = 2.597 | 0.147 | 937.29 | 13.25
303.15 K, m1 = 2.796 | 0.14 | 950.5 | 17.19
303.15 K, m1 = 3.006 | 0.1307 | 964.74 | 24.65
308.15 K, m1 = 0.05 | 0.0194 | – | 0.934
308.15 K, m1 = 0.1 | 0.0313 | – | 0.976
308.15 K, m1 = 0.1985 | 0.0499 | – | 1.028
308.15 K, m1 = 0.3005 | 0.0652 | – | 1.1
308.15 K, m1 = 0.4001 | 0.0776 | – | 1.171
308.15 K, m1 = 0.5007 | 0.0899 | – | 1.261
308.15 K, m1 = 0.5998 | 0.1004 | – | 1.352
308.15 K, m1 = 0.7002 | 0.109 | – | 1.456
308.15 K, m1 = 0.8 | 0.119 | – | 1.59
308.15 K, m1 = 0.8957 | 0.126 | – | 1.698
308.15 K, m1 = 1 | 0.135 | – | –
308.15 K, m1 = 1.198 | 0.148 | – | –
308.15 K, m1 = 1.401 | 0.1609 | – | –
308.15 K, m1 = 1.602 | 0.169 | – | –
308.15 K, m1 = 1.8 | 0.1747 | – | –
308.15 K, m1 = 2.001 | 0.178 | – | –
308.15 K, m1 = 2.198 | 0.177 | – | –
308.15 K, m1 = 2.397 | 0.173 | – | –
308.15 K, m1 = 2.597 | 0.165 | – | –
308.15 K, m1 = 2.796 | 0.158 | – | –
308.15 K, m1 = 3.006 | 0.148 | – | –
